Test results reported in ChEMBL document CHEMBL3507680, “University of Dundee, Gates Library screen for HepG2 cell viability”.
“And” between values parts separate entries of the source, which are not always exact repeats. Equal entries are not always repeated.

Assay: Human HepG2 cell viability assay in 384 well format
Type: toxicity, cell-based
Set-up: dose 125 nL, time 70.5 hour; cytotoxicity at 70.5 h: concentration not given beside the values
Details: for cytotoxicity at 70.5 h: HepG2 cells, read-out: Inhibition

Row | Compound | cytotoxicity at 70.5 h | Inhibition (hepg2, 70.5 h, 70.5 h)
1 | COc1ccc(OC)c(C2CCN(Cc3nc(C)n4ccccc34)C2)c1 (configuration not stated) | -12.6% | 
2 | CCCc1nnc(N2CCC(N3CCN(CCO)CC3)CC2)o1 | -5.69% | 
3 | O=C(NC1CCCC1)c1cc2c(s1)CCN2C(=O)c1ccccc1 | 0.186% | 
4 | CC(=O)N1CCCN(C(=O)NCc2cc[nH]n2)CC1 | 44.8% | 
5 | O=C(c1cc(-n2cccn2)ccn1)N1CCOc2ncccc21 | -1.03% | 
6 | CC(=O)N1N=C(c2ccco2)OC1C(=O)N(C)CCc1ccccc1 (configuration not stated) | 20.4% | 
7 | CN(C)C1CCN(C(=O)c2cc3c(s2)CCN3C(=O)C2CC2)CC1 | -2.71% | 
8 | O=C(C1CCOC1)N1C[C@H]2CN(Cc3ccccn3)C[C@H]2C1 (some centres not stated) | -18% | 
9 | Cc1ccc(-n2nnc(CC(=O)N3CCSCC3)c2C)cc1 | -12.8% | 
10 | Fc1cccc(-c2nccnc2C2CCCNC2)c1 (configuration not stated) | -11.7% | 
11 | CNc1snc(C)c1C(=O)N1CCCC(n2ccnc2C)C1 (configuration not stated) | -4.48% | 
12 | CN(CCCn1cnc2c(N)ncnc21)Cc1ccccc1 | -4.43% | 
13 | c1cnc(N2CCO[C@H]3[C@H](OCCN4CCOCC4)CC[C@@H]32)nc1 | -2.53% | 
14 | CN(Cc1cnc(C(C)(C)C)nc1)Cc1nc2ccc(F)cc2[nH]1 | -5.62% | 
15 | Fc1ccc(OCc2nnc([C@H]3CCN(Cc4ccccn4)C3)o2)cc1 | -7.48% | 
16 | O=C(NC[C@H]1C[C@@H]2CCN1C[C@@H]2CN1CCCC1)c1ccco1 | -4.55% | 
17 | CS(=O)(=O)c1nccn1Cc1ccc(F)cc1Cl | -6.78% | 
18 | Cc1cc(C(=O)N2C[C@@H]3CCCO[C@@H]3[C@H](N(C)C(C)C)C2)c(C)[nH]1 | -6.48% | 
19 | COC(=O)C(C)(C)NC(=O)C1CC(=O)N(CC2CC2)C1 (configuration not stated) | -6.45% | 
20 | COCCN(Cc1ccc(F)cc1C#N)CC(F)(F)F | -10.5% | 
21 | c1cnc(-c2nc(CN3CCC(c4ccn[nH]4)CC3)cs2)nc1 | 0.264% | 
22 | CCCC(=O)N1CCC(Nc2nc(O)cc(-c3ccsc3)n2)CC1 | -3.98% | 
23 | CCS(=O)(=O)N(C)C1CCN(c2cccc(F)c2C(C)=O)CC1 | -4.38% | 

Row | Compound | cytotoxicity at 70.5 h | Inhibition (hepg2, 70.5 h, 70.5 h)
24 | Cc1ncsc1CN1C[C@@H]2CCCO[C@@H]2[C@H](N(C)C(C)C)C1 | -4.74% | 
25 | Cc1ncc(CN(C)CC2CCCN2c2cccnn2)s1 (configuration not stated) | 8.83% | 
26 | COC(=O)CNC(=O)c1cc(-c2ccccc2)nc2ncnn12 | -0.256% | 
27 | Cc1ccc2c(c1)C(NC(C)C)CC21CCNCC1 (configuration not stated) | -1.86% | 
28 | Cc1ncc(CN2CCC3(CCCN(CC4CCC4)C3)C2)cn1 (configuration not stated) | -4.13% | 
29 | CC(=O)Nc1nc(C(=O)Nc2ccc(N3CCCCC3)nc2)cs1 | 13.7% | 
30 | CN(Cc1nc(C2CC2)no1)C1CCS(=O)(=O)C1 (configuration not stated) | -4.77% | 
31 | Cc1nn(C)cc1CNC(=O)c1cn(CCC2CCCCN2)nn1 (configuration not stated) | -8.92% | 
32 | CN1CCO[C@@H]2CN(C(=O)NCc3cccc(F)c3)CC[C@@H]2C1 | -3.54% | 
33 | O=C(Cn1cccnc1=O)NCc1cccnc1OCC(F)(F)F | 2.5% | 
34 | CC(C)CN1CCC2(C=C(C(=O)N3CCCC3)c3ccccc32)CC1 | -15.8% | 
35 | COc1cccc(S(=O)(=O)Cc2noc(CC(C)C)n2)c1 | -4.78% | 
36 | COCCN1CCCC(c2ccnc3c(C(N)=O)cnn23)C1 (configuration not stated) | 3.17% | 
37 | Cn1c(CN2CCCC(Cn3cncn3)C2)nc2ccccc21 (configuration not stated) | 28.9% | 
38 | Cn1cc(CN2CCC(F)(F)C3(CCN(c4ncc(F)cn4)C3)C2)cn1 (configuration not stated) | -13.8% | 
39 | Cc1cc(C(=O)O)ccc1NS(=O)(=O)c1c(C)nn(C(C)C)c1C | -5.01% | 
40 | O=C(NCc1cccs1)[C@]12COC[C@H]1CN(c1ncccn1)C2 | -3.55% | 
41 | CCc1oc(C(=O)N2CCC(N(CC)C(C)=O)C2)cc1CN(CC)CC (configuration not stated) | -12.3% | 
42 | Cc1cc(C(=O)NCCCn2nccc2C2CC2)c(=O)[nH]c1C | -14.7% | 
43 | O=C(N1CCOCC1CO)C1(c2cccs2)CCCC1 (configuration not stated) | -4.96% | 
44 | CCOc1ccc(NC(=O)N2CCOC(C(N)=O)C2)cc1Cl (configuration not stated) | 2.49% | 
45 | c1cncc(COCC2CN(Cc3ccco3)Cc3ccnn3C2)c1 (configuration not stated) | 0.213% | 
46 | Cc1nnc2n1CCN(Cc1csc(CC(=O)N(C)C)n1)C2 | -13.5% | 

Row | Compound | cytotoxicity at 70.5 h | Inhibition (hepg2, 70.5 h, 70.5 h)
47 | Cc1n[nH]c(C)c1CCC(=O)NC1CCCN(c2ccccc2F)C1 (configuration not stated) | 6.82% | 
48 | CCC(CC)c1cc(C(=O)N2CCN(C(C)C(N)=O)CC2)on1 (configuration not stated) | -7.02% | 
49 | Cc1cc(Cn2cncc(Br)c2=O)on1 | 5.25% | 
50 | CC(=O)Nc1ccc(S(=O)(=O)Nc2c(F)cccc2F)cc1 | 1.02% | 
51 | CCn1ccc2cc(NC(=O)CC3CCCO3)ccc21 (configuration not stated) | -6.31% | 
52 | O=C(c1ccccc1)N1CCO[C@@H]2CN(c3ncccn3)C[C@@H]2C1 | -6.94% | 
53 | Cn1ccnc1COc1ccc(CN2CCN(CCO)CC2)cc1 | 15% | 
54 | CC1=Nc2c(c(=O)[nH]n2C2CCCC2)C(c2ccc(C(=O)O)cc2)S1 (configuration not stated) |  | -12.72% and -17.34%
55 | CN1C(=O)CC(C(=O)O)C12CCN(Cc1cc(Cl)ccc1F)CC2 (configuration not stated) | 8.5% | 
56 | Cc1nc(CN2CCCC(Nc3ncnc4ccccc34)C2)no1 (configuration not stated) | -5.36% | 
57 | COC(=O)c1ccc(Cn2cnc(C#N)n2)cc1 | -12% | 
58 | Cc1c(C)n(CC(O)CN2CCN(CCO)CC2)c2c(Cl)cccc12 (configuration not stated) | 10% | 
59 | O=C(N[C@@H]1C[C@H]2CC[C@@H]1C2)C1(Oc2ccc(Cl)cc2)CCNCC1 | -2.25% | 
60 | CC(=O)N1CCN(CCNS(=O)(=O)c2cc(F)cc(F)c2)CC1 | -0.303% | 
61 | NC(=O)c1cn[nH]c1C1CCCN1C(=O)COc1ccccc1 (configuration not stated) | -3.18% | 
62 | N#Cc1ccc(C(=O)N2CC(c3nc(-c4ncccn4)no3)C2)cc1 | -13.2% | 
63 | COc1ccc(O[C@H]2COCCN(Cc3c[nH]c4ccccc34)C2)cc1 | 1.44% | 
64 | O=C(CC1CC1)N1C[C@H]2CN(CC3CC3)C(=O)[C@H]2C1 | -1.89% | 
65 | CCc1nnsc1C(=O)NC(CC(C)C)C(=O)OC (configuration not stated) | -7.11% | 
66 | NC(=O)Cn1c(CO)cnc1SCc1ccccc1Cl | 18.9% | 
67 | Cc1nccn1-c1cc(CNC(=O)c2ccccn2)ccn1 | -4.56% | 
68 | O=C(NCCNc1cnccn1)N1CCCCCC1 | 2.18% | 
69 | CC(NC(=O)CN(C)C(C)C)c1ccc(Oc2cccnc2)c(F)c1 (configuration not stated) | -4.91% | 

Row | Compound | cytotoxicity at 70.5 h | Inhibition (hepg2, 70.5 h, 70.5 h)
70 | Cc1ccc(CN2CCn3cc(CNC(=O)c4cnn(C)c4)nc3C2)s1 | -102% | 
71 | c1csc(CCN2CCCC2c2noc(C3CC3)n2)c1 (configuration not stated) | -7.22% | 
72 | COC1COC2(CCN(C(=O)c3cscn3)CC2)C1 (configuration not stated) | -6.82% | 
73 | Cn1c(-c2ccc(F)cc2)cn2cc(C(=O)N3CCC(N)C3)nc2c1=O (configuration not stated) | -9.46% | 
74 | CC(=O)c1cccc(OCC(=O)NS(=O)(=O)c2ccc(Br)s2)c1 | -2.56% | 
75 | CS(=O)(=O)CCC(=O)NC1(c2cccc(C(F)(F)F)c2)CCC1 | -24.7% | 
76 | CC(C)c1noc(CNc2cccc(-c3nnnn3C)c2)n1 | -8.75% | 
77 | Cc1nc2cc(O)nn2c(C)c1CCC(=O)NCCc1nccn1C | -10.9% | 
78 | c1ccc(OC[C@]23COC[C@H]2CN(C2CCOCC2)C3)nc1 | -9.47% | 
79 | Cn1ccnc1CN1CCCN(C(=O)c2ccc3c(c2)OCO3)CC1 | -6.18% | 
80 | O=C1NCC(C(=O)NCc2ccccc2CN2CCOCC2)N1 (configuration not stated) | -4.6% | 
81 | CC(C)[C@H](N)c1nnc(SCC(=O)Nc2ccc(Br)cc2)o1 | -4.97% | 
82 | CCCn1nnc2c(sc3nc(N4CCOCC4)c4c(c32)CCC4)c1=O | -21.7% | 
83 | O=C1OCCN1CCNCC1(O)CCCN(CCC2CCCCC2)C1=O (configuration not stated) | -5.99% | 
84 | Cc1ccc(-c2cc(CN(CC(N)=O)CC(C)C)on2)cc1 | -2.81% | 
85 | Cc1nc(CCN(C)C(=O)CCNC(=O)c2ccccc2F)no1 | -4.9% | 
86 | O=C(CC1CC1)N1C[C@@H]2CN(c3ccccc3)C(=O)[C@@H]2C1 | -8.68% | 
87 | Cn1nc(N2CCCC(C(=O)Nc3nc4ccccc4[nH]3)C2)ccc1=O (configuration not stated) | -10% | 
88 | CCCC(NC(=O)c1ccc(OC)cc1F)c1nnn[nH]1 (configuration not stated) | -3.7% | 
89 | Cc1c[nH]nc1C1CCCCN1C(=O)CNS(C)(=O)=O (configuration not stated) | 9.79% | 
90 | O=C(NC1CC1)c1cc(NC(=O)N2CCCC2)ccc1Cl | -13.8% | 
91 | COCC(Nc1ncnc2c1CCNCC2)c1ccccn1 (configuration not stated) | -12.5% | 
92 | CCCN1CCC(CNC(=O)N2CCCC2c2c(C)n[nH]c2C)CC1 (configuration not stated) | 3.87% | 

Row | Compound | cytotoxicity at 70.5 h | Inhibition (hepg2, 70.5 h, 70.5 h)
93 | CCn1nc2c(cc1=O)CN(CCCOc1ccc(C#N)cc1)CC2 | 10.4% | 
94 | CCCN(Cc1cnc2ccccc2n1)Cc1ccccc1OC | -7.09% | 
95 | O=C([C@@H]1C[C@@H]2CCN(Cc3ccco3)C[C@H]2O1)N1CCCO1 | -0.42% | 
96 | CC(C)(C)C1CCC(NCCN2CCOCC2)CC1 (configuration not stated) | -5.37% | 
97 | CC(C)(C)c1cn2nc(N3CCCC3Cn3cccn3)sc2n1 (configuration not stated) | 0.173% | 
98 | CCC(CC)(CNC(=O)OC(C)(C)C)NC(=O)C1CCCO1 (configuration not stated) | -3.25% | 
99 | OCCn1nccc1C1CCN(Cc2nc(C3CC3)no2)CC1 | -1.33% | 
100 | Cc1[nH]ncc1C(=O)N1CCCC1c1noc(C2CC2)n1 (configuration not stated) | 19.4% | 
101 | Cc1cc(C)c(CNC(=O)N2CCN(c3cnccn3)CC2)c(=O)[nH]1 | -4.71% | 
102 | Cc1cc(NC(=O)C(C)C)n(-c2nc(C)c(C)c(=O)[nH]2)n1 | 56.9% | 
103 | CSc1ccc(C)c(C(=O)Nc2c(C(N)=O)n[nH]c2C)c1 | -5.86% | 
104 | CNC(=O)NC(=O)C(C)N1CCN(C2CCCC2)CC1 (configuration not stated) | -4.93% | 
105 | CN(C)C(=O)CNC(=O)c1ccc2c(-c3nccs3)noc2c1 | -3.55% | 
106 | CC(C)(C)OC(=O)N1CCC(NCc2cnn(C(C)(C)C)c2)CC1 | -2.5% | 
107 | COCCn1cc(NCc2c[nH]nc2-c2ccc(OC)cc2)cn1 | -5.02% | 
108 | O=c1[nH]c(COc2ccc(Cl)cc2)nc2c1CCNC2 | 16.3% | 
109 | CCn1cc2c(n1)CN(S(=O)(=O)Cc1ccccc1)CC2COC (configuration not stated) | 11.6% | 
110 | CCCc1nnc(N2C[C@@H](C)[C@@](C)(O)C2)s1 | 12% | 
111 | Cn1c2ncccc2c(=O)n1CC(=O)Nc1ccc(F)c(F)c1 | -3.2% | 
112 | Cc1ccc(C(=O)N(C)Cc2cc(C)on2)cn1 | -2.86% | 
